Measurements published in patent publication US8785638B2, “Thieno [2, 3-B] pyridine derivatives as viral replication inhibitors” (Katholieke Universiteit Leuven, priority 2009, dated 2014).
Where two headings read alike, the source gives them in different places.

Experiments:
[1] = tested on: HIV-1 (IIIB), HIV-1 (NL4.3); assay: microbe, parasite or virus in culture; format: cell-based; settings: for EC50: Human immunodeficiency virus 1, IIIB, MT4, MT-4 cells, 50% protection against HIV-induced cytopathogenic effect, MTT; for SI: selectivity index, ratio of CC50 to EC50
Description: (§1) A rapid and automated assay procedure was used for the in vitro evaluation of anti-HIV agents. An HTLV-1 transformed T4-cell line MT-4, which was previously shown to be highly susceptible to and permissive for HIV infection, served as the target cell line. Inhibition of the HIV-induced cytopathogenic effect was used as the end point. The viabitlity of both HIV- and mock-infected cells was assessed spectrophotometrically via in situ reduction of 3-(4,5-dimethylthiazol-2-yl)-2,5-diphenyltetrazolium bromide (MTT). The 50% cytotoxic concentration (CC50 in μM or μg/ml) was defined as the concentration of compound that reduced the absorbance of the mock-infected control sample by 50%. The percent protection achieved by the compound in HIV-infected cells was calculated by the following formula:
(§2) [formula] whereby (ODT)HIV is the optical density measured with a given concentration of the test compound in HIV-infected cells; (ODC)HIV is the optical density measured for the control untreated HIV-infected cells; (ODC)MOCK is the optical density measured for the control untreated mock-infected cells; all optical density values were determined at 540 nm. The dose achieving 50% protection according to the above formula was defined as the 50% inhibitory concentration (EC50 in μM or μg/ml). The ratio of CC50 to EC50 was defined as the selectivity index (SI). […] Examples of inhibition of cell proliferation by particular compounds of the invention can be found by looking at the respective CC50 values in the MT-4 cell line. Cells:
(§3) MT-4 cells (Miyoshi et al., 1982) were grown and maintained in RPMI 1640 medium supplemented with 10% heat-inactivated fetal calf serum, 2 mM I-glutamine, 0.1% sodium bicarbonate, and 20 μg of gentamicin per ml. Alternatively, the MT-4 cells may also be grown in RPMI 1640 medium supplemented with 10% FCS and 20 μg/ml of gentamicin (RPMI-complete).
The HIV-1 (IIIB) strain (Popovic et al., 1984) as well as the HIV-1 (NL4.3) strain (Adachi et al., J. Virol. 59, 284-291 (1986)) were used.

[2] = molecular target: LEDGF/p75-HIV-1 integrase interaction (Human immunodeficiency virus type 1 group M subtype B (isolate HXB2) (HIV-1), UniProt P04585); assay: AlphaScreen assay of LEDGF-integrase interaction inhibition; format: binding
Description: Alphascreen Assay to Measure the LEDGF-Integrase Interaction Inhibitory Activity of Compounds of the Invention
The AlphaScreen assay was performed according to the manufacturer's protocol (Perkin Elmer, Benelux). Reactions were performed in 25 μl final volume in 384-well Optiwell™ microtiter plates (Perkin Elmer). The reaction buffer contained 25 mM Tris-HCl (pH 7.4), 150 mM NaCl, 1 mM MgCl2, 0.01% (v/v) Tween-20 and 0.1% (w/v) bovine serum albumin. His6-tagged integrase (300 nM final concentration) was incubated with the compounds for 30 min at 4° C. The compounds were added at varying concentrations spanning a wide range from 0.1 up to 100 μM. Afterwards 100 nM flag-LEDGF/p75 was added and incubation was prolonged for an additional hour at 4° C. Subsequently 5 μl of Ni-chelate-coated acceptor beads and 5 μl anti-flag donor beads were added to a final concentration of 20 μg/ml of both beads. Proteins and beads were incubated for 1 h at 30° C. in order to allow association to occur. Exposure of the reaction to direct light was omitted as much as possible and the emission of light from the acceptor beads was measured in the EnVision plate reader (Perkin Elmer, Benelux) and analyzed using the EnVision manager software. IN/DNA binding was analyzed in a similar setting using His6-tagged integrase (1 μM final concentration) and an oligodeoxynucleotide mimicking the IN ELISA oligonucleotide substrate (30 nM final concentration). Counterscreens with JPO2 or PogZ, respectively, were essentially performed as described previously.
His6-tagged HIV-1 integrase, 3xflag-tagged LEDGF/p75, MBP-JPO2 and MBP-PogZ were purified for AlphaScreen applications as described previously 23,25,56.

[3] = Cytotoxicity in mock-infected MT-4 cells (MTT); format: cell-based; settings: human, 50% cytotoxic concentration
Description: as §1, §2, §3

[4] = His6-tagged integrase 300 nM, flag-LEDGF/p75 100 nM, read-out: Alphascreen IC50

Row | SMILES | EC50 [1] | SI [1] | IC50 [2, 4] | CC50 [3] | IC50 [2]
1 | Cc1ccc(-c2c(C(CC3CC3)C(=O)O)c(C)nc3sc4c(c23)CCCC4)cc1 (stereo not shown) [Cpd 165, 2-[2-Methyl-4-(p-tolyl)-5,6,7,8-tetrahydro[1]benzothieno[2,3-b]pyridin-3-yl]-3-cyclopropylpropanoic acid] | 0.867 µM | 102 | < 1 µM | 89 µM | 
2 | CCCC(C(=O)O)c1c(C)nc2scc(C)c2c1-c1ccc(C)cc1 (stereo not shown) [Cpd 118, 2-(3,6-Dimethyl-4-p-tolylthieno[2,3-b]pyridin-5-yl)pentanoic acid] | > 50.2 µM |  | 23.4 µM | 50.2 µM | 
3 | CCCC(C(=O)O)c1c(-c2ccccc2)nc2sc3c(c2c1-c1ccc(C)cc1)CCC3 (stereo not shown) [Cpd 126, 2-[2-phenyl-4-p-tolyl-6,7-dihydro-5H-cyclopenta[4,5]thieno[2,3-b]pyridin-3-yl]pentanoic acid] | > 30.1 µM |  | 56.3 µM | 30.1 µM | 
4 | CCCC(C(=O)O)c1c(C)nc2sc3c(c2c1-c1ccc(C)cc1O)CCCC3.N (stereo not shown) [Cpd 161, 2-[2-Methyl-4-(2-hydroxy-4-methylphenyl)-5,6,7,8-tetrahydro[1]benzothieno[2,3-b]pyridin-3-yl]pentanoate ammonium salt] | 0.147 µM | 1061 |  | 157 µM | 0.0554 µM
5 | CCCC(C(=O)O)c1c(C)nc2sc3c(c2c1-c1cccc(C(F)(F)F)c1)CCCC3 (stereo not shown) [Cpd 140, 2-[2-Methyl-4-(3-trifluoromethylphenyl)-5,6,7,8-tetrahydro[1]benzothieno[2,3-b]pyridin-3-yl]pentanoic acid] | 28.2 µM | 4 | 18.1 µM | 100 µM | 
6 | Cc1ccc(-c2c(CC(=O)O)c(C)nc3sc(C)cc23)cc1 [Cpd 106, (2,6-Dimethyl-4-p-tolylthieno[2,3-b]pyridin-5-yl)acetic acid] | 96.4 µM | >1 | 53.9 µM | > 125 µM | 
7 | CCCC(C(=O)O)c1c(C)nc2sc3c(c2c1-c1ccc(C)cc1)CCN(Cc1ccccc1)C3 (stereo not shown) [Cpd 163, 2-[7-Benzyl-2-methyl-4-(p-tolyl)-5,6,7,8-tetrahydro-9-thia-1,7-diaza-fluoren-3-yl]pentanoic acid] | > 23 µM |  | 4.5 µM | 23 µM | 
8 | CCCC(C(=O)O)c1c(C)nc2sc3c(c2c1-c1ccc(Cl)c(Cl)c1)CCCC3 (stereo not shown) [Cpd 139, 2-[2-Methyl-4-(3,4-dichlorophenyl)-5,6,7,8-tetrahydro[1]benzothieno[2,3-b]pyridin-3-yl]pentanoic acid] | 5.32 µM | 10 | 9.24 µM | 55.1 µM | 
9 | Cc1nc2sc3c(c2c(-c2ccc4c5c(ccnc25)CCO4)c1C(OC(C)(C)C)C(=O)O)CCCC3 (stereo not shown) [Cpd 190] | 0.015 µM | 8401 |  | 129 µM | 0.37 µM
10 | CCCC(C(=O)O)c1c(C)nc2sc3c(c2c1-c1ccc(C)cc1)CCCCC3 (stereo not shown) [Cpd 135] | 42.4 µM | 3 |  | 109 µM | 55.8 µM
11 | CCCC(C(=O)O)c1c(C)nc2sc(C)cc2c1-c1ccc(C)cc1 (stereo not shown) [Cpd 110, 2-(2,6-Dimethyl-4-p-tolylthieno[2,3-b]pyridin-5-yl)pentanoic acid] | 0.76 µM | 95 | 4.31 µM | 72.2 µM | 
12 | CCCC(C(=O)O)c1c(C)nc2sc3c(c2c1-c1ccc(C)cc1)CCOC3 (stereo not shown) [Cpd 133, 2-[2-Methyl-4-(p-tolyl)-5,8-dihydro-6H-7-oxa-9-thia-1-aza-fluoren-3-yl]pentanoic acid] | 18 µM | 8 | 7.8 µM | 165 µM | 
13 | CCCC(C(=O)O)c1c(C)nc2sc3c(c2c1-c1ccccc1Cl)CCCC3 (stereo not shown) [Cpd 137, 2-[2-Methyl-4-(2-chlorophenyl)-5,6,7,8-tetrahydro[1]benzothieno[2,3-b]pyridin-3-yl]pentanoic acid] | > 111 µM |  | 51.9 µM | 111 µM | 
14 | CCCC(C(=O)O)c1c(C)nc2sc3c(c2c1-c1cccnc1)CCCC3 (stereo not shown) [Cpd 150, 2-[2-Methyl-4-(pyridin-3-yl)-5,6,7,8-tetrahydro[1]benzothieno[2,3-b]pyridin-3-yl]pentanoic acid] | 0.78 µM | 49 | 1.37 µM | 38.5 µM | 
15 | CCCC(c1c(C)nc2sc3c(c2c1-c1ccc(C)cc1)CCCC3)C1SC(=O)NC1=O (stereo not shown) [Cpd 182] | > 27.3 µM |  |  | 27.3 µM | ~80 µM
16 | CCCC(C(=O)O)c1c(C)nc2sc3c(c2c1-c1ccc(C(F)(F)F)cc1)CCC3 (stereo not shown) [Cpd 116, 2-[2-Methyl-4-(4-trifluoromethylphenyl)-6,7-dihydro-5H-cyclopenta[4,5]thieno[2,3-b]pyridin-3-yl]pentanoic acid] | 1.21 µM | 12 | 0.62 µM | 14.7 µM | 
17 | C#CCC(C(=O)O)c1c(C)nc2sc3c(c2c1-c1ccc(C)cc1)CCCC3 (stereo not shown) [Cpd 159, 2-[2-Methyl-4-(p-tolyl)-5,6,7,8-tetrahydro[1]benzothieno[2,3-b]pyridin-3-yl]-pent-4-yn-oic acid] | 7.54 µM | 13 | 13.3 µM | 99.5 µM | 
18 | Cc1ccc(-c2c(C(CC(C)C)C(=O)O)c(C)nc3sc4c(c23)CCCC4)cc1 (stereo not shown) [Cpd 136, 2-[2-Methyl-4-(p-tolyl)-5,6,7,8-tetrahydro[1]benzothieno[2,3-b]pyridin-3-yl]-4-methylpentanoic acid] | 1.02 µM | 85 | 4.34 µM | 86.4 µM | 
19 | CCCC(C(=O)O)c1c(C)nc2sc3c(c2c1-c1cccc(C)c1)CCCC3 (stereo not shown) [Cpd 141, 2-[2-Methyl-4-(m-tolyl)-5,6,7,8-tetrahydro[1]benzothieno[2,3-b]pyridin-3-yl]pentanoic acid] | 14.8 µM | 4 | 23.7 µM | 55.5 µM | 
20 | CCCC(C(=O)O)c1c(C)nc2sc3c(c2c1-c1ccc(CC)cc1)CCCC3 (stereo not shown) [Cpd 149, 2-[2-Methyl-4-(4-ethylphenyl)-5,6,7,8-tetrahydro[1]benzothieno[2,3-b]pyridin-3-yl]pentanoic acid] | > 67 µM |  | 74.4 µM | 67 µM | 
21 | CCCC(C(=O)O)c1c(C)nc2sc3c(c2c1-c1cccs1)CCC3 (stereo not shown) [Cpd 130, 2-[2-Methyl-4-(2-thienyl)-6,7-dihydro-5H-cyclopenta[4,5]thieno[2,3-b]pyridin-3-yl]pentanoic acid] | 29.6 µM | 4 | 30.6 µM | 130 µM | 
22 | CCCC(C(N)=O)c1c(C)nc2sc3c(c2c1-c1ccc(C)cc1)CCCC3 (stereo not shown) [Cpd 167, 2-[2-Methyl-4-p-tolyl-5,6,7,8-tetrahydro[1]benzothieno[2,3-b]pyridin-3-yl]pentanamide] | > 26.1 µM |  | 63.7 µM | 26.1 µM | 
23 | CCCC(C(=O)O)c1c(C)nc2sc3ccccc3c2c1-c1ccc(C)cc1 (stereo not shown) [Cpd 120, 2-[2-Methyl-4-p-tolylbenzo[4,5]thieno[2,3-b]pyridin-3-yl]pentanoic acid] | 1.51 µM | 67 | 2.72 µM | 101 µM | 
24 | CCCC(C(=O)O)c1c(C)nc2scc(-c3ccccc3)c2c1-c1ccc(C)cc1 (stereo not shown) [Cpd 143] | > 66 µM |  | 49.2 µM | 66 µM | 
